# Measured values taken from patent US10244762B1, “Solid aquatic organism control composition and method of use” (priority 2016, dated 2019).
# Test system: Microcystis aeruginosa
# Test: M. aeruginosa cultures, peroxide held constant with Fe-EDTA and citric acid
# Assay type: cell-based
# Conditions: 1.75 ppm H2O2; for In vivo chl a concentrations (± SD) of M. aeruginosa cultures: initial 3.83 ± 0.05 μg/L
# Description: Tests were conducted similar to Example 1 to show the efficacy of compositions made according to the present disclosure against Microcystis aeruginosa. M. aeruginosa is a species of fresh water bacteria that can form harmful algal blooms.
# Peroxide concentrations were held constant at either 0.5 ppm, 1.5 ppm, 1.75 ppm, or 2.0 ppm. Fe-EDTA was applied at 0.3%, 0.6%, or 0.9% based on the original dry formulation. Citric acid was added at 1% based on the original dry formulation.
# For instance, Tables 5 and 6 below illustrate the differences when peroxide was applied at 1.75 ppm.
compound,measurement,setting,value
"OO [H2O2, hydrogen peroxide]",In vivo chl a concentrations (± SD) of M. aeruginosa cultures,day 1,2.87 ± 0.74 µg/L
same,In vivo chl a concentrations (± SD) of M. aeruginosa cultures,day 2,1.72 ± 0.66 µg/L
same,In vivo chl a concentrations (± SD) of M. aeruginosa cultures,day 3,1.31 ± 0.64 µg/L
same,In vivo chl a concentrations (± SD) of M. aeruginosa cultures,day 4,1.32 ± 0.63 µg/L
same,Cell density of M. aeruginosa cultures (± SD),"day 4, initial cell density 2.2E+06 ± 7.2E+04 cells/mL",8.0E+04 cells/mL
